# Test results reported in patent US10800791B2, “Triazole ACC inhibitors and uses thereof” (Gilead Apollo, LLC, priority 2015, dated 2020).
# Read-outs that look alike come from different tables or passages of the source.
# Key:
# human (hACC2) = human (hACC2) (Homo sapiens, UniProt O00763); assay: In vitro ACC inhibition assay (ADP-Glo), hACC2; assay type: biochemical; conditions: 5 nM ACC2, 20 μM ATP, 20 μM acetyl-CoA
# Experimental: The detailed procedure is as follows. […] 10 μL ADP glo reagent was added. […] 20 μL kinase detection reagent was added.
# C. albicans = assay: Antifungal Activity Assay (broth microtiter MIC), C. albicans; assay type: cell-based, Candida albicans; conditions: Candida albicans, ATCC90028, 48 h
# In short: (§1)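 Susceptibility was determined by CLSI M27-A3 broth microdilution in RPMI 1640 buffered with MOPS. Growth inhibition was scored visually after 48 h.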
# C. parapsilosis = assay: Antifungal Activity Assay (broth microtiter MIC), C. parapsilosis; assay type: cell-based, Candida parapsilosis; conditions: Lodderomyces parapsilosis, ATCC22019, 48 h
# In short: as §1
# Botrtyis cinerea (Bc) = assay: Growth inhibition assay of fungal pathogens, Bc; assay type: cell-based; conditions: 48 h
# In short: (§2)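 Percent inhibition derived at 48 hours from OD600 and visual scores versus 2% DMSO control, with media+DMSO blank as background. Spore inocula in 17% V8 medium were sized from 48 h growth curves; compounds tested at final 50/10/2 or 2/0.4/0.08 ppm.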
# Diplodia maydis (Dm) = assay: Growth inhibition assay of fungal pathogens, Dm; assay type: cell-based; conditions: Stenocarpella maydis, 48 h
# In short: as §2
# [1] = system: Fusarium moniliforme (Fm); assay: Growth inhibition assay of fungal pathogens, Fm; assay type: cell-based; conditions: for IC90: Fusarium verticillioides, 48 h, read-out: Concentration at 90% Inhibition Fm
# In short: as §2
# [2] = system: Fusarium virguliforme (Fv); assay: Growth inhibition assay of fungal pathogens, Fv; assay type: cell-based; conditions: 48 h
# In short: as §2
# Rhizoctonia solani (Rs) = assay: Growth inhibition assay of fungal pathogens, Rs; assay type: cell-based; conditions: 48 h
# Septoria tritici (St) = assay: Growth inhibition assay of fungal pathogens, St; assay type: cell-based; conditions: Zymoseptoria tritici, 48 h
# In short: as §2
# fungal (fACC2) = fungal (fACC2) (UniProt Q00955); conditions: read-out: fACC2 (in vitro ACC2 Inhibition Assay, IC50), ADP-Glo, 5 nM ACC2, 20 μM ATP, 20 μM acetyl-CoA
# fungal (fACC2), sequence (Q00955 whole entry): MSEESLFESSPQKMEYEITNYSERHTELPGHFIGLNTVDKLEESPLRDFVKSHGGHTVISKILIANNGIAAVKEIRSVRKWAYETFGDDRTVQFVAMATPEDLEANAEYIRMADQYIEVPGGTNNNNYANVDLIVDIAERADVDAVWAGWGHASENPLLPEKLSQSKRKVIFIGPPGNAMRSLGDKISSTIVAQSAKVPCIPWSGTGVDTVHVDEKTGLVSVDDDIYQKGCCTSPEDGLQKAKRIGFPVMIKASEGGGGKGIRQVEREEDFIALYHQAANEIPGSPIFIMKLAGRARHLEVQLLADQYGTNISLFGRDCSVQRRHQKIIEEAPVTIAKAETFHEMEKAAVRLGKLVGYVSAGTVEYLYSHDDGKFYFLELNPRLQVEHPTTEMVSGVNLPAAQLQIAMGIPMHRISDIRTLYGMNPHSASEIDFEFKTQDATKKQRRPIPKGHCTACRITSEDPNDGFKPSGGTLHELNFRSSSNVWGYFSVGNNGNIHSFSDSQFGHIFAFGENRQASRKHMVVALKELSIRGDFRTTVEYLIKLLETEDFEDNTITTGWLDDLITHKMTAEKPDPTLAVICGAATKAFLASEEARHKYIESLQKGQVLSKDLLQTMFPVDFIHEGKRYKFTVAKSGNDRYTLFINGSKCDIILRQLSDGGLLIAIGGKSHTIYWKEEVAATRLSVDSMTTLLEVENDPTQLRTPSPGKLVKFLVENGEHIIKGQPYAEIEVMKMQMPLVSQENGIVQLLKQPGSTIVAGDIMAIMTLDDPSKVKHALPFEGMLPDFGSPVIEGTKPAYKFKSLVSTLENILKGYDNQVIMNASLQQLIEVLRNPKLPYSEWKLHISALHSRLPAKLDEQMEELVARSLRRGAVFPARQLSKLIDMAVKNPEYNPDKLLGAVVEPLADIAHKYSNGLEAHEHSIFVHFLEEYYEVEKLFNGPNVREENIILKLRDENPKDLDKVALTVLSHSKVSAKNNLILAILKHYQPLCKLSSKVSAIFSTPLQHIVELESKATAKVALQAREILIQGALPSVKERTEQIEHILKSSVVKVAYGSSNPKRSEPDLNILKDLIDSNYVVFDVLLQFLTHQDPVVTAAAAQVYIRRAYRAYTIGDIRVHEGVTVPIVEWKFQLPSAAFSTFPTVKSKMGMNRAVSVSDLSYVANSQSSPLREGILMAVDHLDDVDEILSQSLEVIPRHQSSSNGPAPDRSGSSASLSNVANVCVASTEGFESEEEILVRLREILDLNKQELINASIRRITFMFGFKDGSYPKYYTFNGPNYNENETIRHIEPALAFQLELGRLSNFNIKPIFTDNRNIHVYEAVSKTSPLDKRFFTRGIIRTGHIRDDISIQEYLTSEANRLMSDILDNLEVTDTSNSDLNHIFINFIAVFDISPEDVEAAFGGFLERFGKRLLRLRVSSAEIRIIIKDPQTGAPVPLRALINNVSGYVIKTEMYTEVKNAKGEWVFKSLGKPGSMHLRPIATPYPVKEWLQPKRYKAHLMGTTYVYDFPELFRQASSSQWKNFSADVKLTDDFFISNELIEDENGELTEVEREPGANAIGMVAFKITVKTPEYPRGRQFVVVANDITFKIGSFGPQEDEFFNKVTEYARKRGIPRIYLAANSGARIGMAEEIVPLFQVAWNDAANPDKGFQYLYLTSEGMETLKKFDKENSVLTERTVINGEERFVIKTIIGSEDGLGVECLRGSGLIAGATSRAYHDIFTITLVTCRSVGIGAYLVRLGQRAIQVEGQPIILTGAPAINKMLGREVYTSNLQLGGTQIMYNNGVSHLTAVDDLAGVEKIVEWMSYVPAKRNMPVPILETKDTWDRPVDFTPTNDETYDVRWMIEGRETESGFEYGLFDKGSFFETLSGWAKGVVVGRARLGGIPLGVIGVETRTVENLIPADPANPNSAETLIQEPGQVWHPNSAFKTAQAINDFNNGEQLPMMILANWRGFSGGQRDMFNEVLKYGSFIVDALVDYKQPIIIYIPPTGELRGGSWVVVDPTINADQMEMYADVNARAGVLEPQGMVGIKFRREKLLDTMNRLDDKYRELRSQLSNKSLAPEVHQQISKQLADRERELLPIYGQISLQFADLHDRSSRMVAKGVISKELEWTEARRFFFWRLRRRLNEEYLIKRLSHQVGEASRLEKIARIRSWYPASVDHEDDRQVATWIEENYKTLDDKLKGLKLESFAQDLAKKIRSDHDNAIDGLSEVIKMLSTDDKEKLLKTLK
# [3] = Table 3a, ATCC 90028, 3 replicates, MIC recorded at 48 h, read-out: MIC, C. albicans ATCC 90028
# [4] = Table 3b (additional results), ATCC 90028, 3 replicates, MIC recorded at 48 h, read-out: MIC, C. albicans ATCC 90028
# [5] = Table 3a, ATCC 22019, 3 replicates, MIC recorded at 48 h, read-out: MIC, C. parapsilosis ATCC 22019
# [6] = Table 3b (additional results), ATCC 22019, 3 replicates, MIC recorded at 48 h, read-out: MIC, C. parapsilosis ATCC 22019
# [7] = Botrtyis cinerea, growth inhibition at 48 hours vs 2% DMSO control, read-out: Concentration at 90% Inhibition Bc
# [8] = Botrtyis cinerea, growth inhibition vs 2% DMSO control at 48 hours, read-out: Concentration at 90% Inhibition Bc
# [9] = Diplodia maydis, growth inhibition at 48 hours vs 2% DMSO control, read-out: Concentration at 90% Inhibition Dm
# [10] = Diplodia maydis, growth inhibition vs 2% DMSO control at 48 hours, read-out: Concentration at 90% Inhibition Dm
# [11] = Fusarium moniliforme, growth inhibition at 48 hours vs 2% DMSO control
# [12] = Fusarium moniliforme, growth inhibition vs 2% DMSO control at 48 hours
# [13] = growth inhibition at 48 hours vs 2% DMSO control, read-out: Concentration at 90% Inhibition Fv
# [14] = growth inhibition vs 2% DMSO control at 48 hours, read-out: Concentration at 90% Inhibition Fv
# [15] = mycelial plugs, growth inhibition at 48 hours vs 2% DMSO control, read-out: Concentration at 90% Inhibition Rs
# [16] = mycelial plugs, growth inhibition vs 2% DMSO control at 48 hours, read-out: Concentration at 90% Inhibition Rs
# [17] = Septoria tritici, growth inhibition at 48 hours vs 2% DMSO control, read-out: Concentration at 90% Inhibition St
# [18] = Septoria tritici, growth inhibition vs 2% DMSO control at 48 hours, read-out: Concentration at 90% Inhibition St
# human (hACC2), sequence (O00763 whole entry): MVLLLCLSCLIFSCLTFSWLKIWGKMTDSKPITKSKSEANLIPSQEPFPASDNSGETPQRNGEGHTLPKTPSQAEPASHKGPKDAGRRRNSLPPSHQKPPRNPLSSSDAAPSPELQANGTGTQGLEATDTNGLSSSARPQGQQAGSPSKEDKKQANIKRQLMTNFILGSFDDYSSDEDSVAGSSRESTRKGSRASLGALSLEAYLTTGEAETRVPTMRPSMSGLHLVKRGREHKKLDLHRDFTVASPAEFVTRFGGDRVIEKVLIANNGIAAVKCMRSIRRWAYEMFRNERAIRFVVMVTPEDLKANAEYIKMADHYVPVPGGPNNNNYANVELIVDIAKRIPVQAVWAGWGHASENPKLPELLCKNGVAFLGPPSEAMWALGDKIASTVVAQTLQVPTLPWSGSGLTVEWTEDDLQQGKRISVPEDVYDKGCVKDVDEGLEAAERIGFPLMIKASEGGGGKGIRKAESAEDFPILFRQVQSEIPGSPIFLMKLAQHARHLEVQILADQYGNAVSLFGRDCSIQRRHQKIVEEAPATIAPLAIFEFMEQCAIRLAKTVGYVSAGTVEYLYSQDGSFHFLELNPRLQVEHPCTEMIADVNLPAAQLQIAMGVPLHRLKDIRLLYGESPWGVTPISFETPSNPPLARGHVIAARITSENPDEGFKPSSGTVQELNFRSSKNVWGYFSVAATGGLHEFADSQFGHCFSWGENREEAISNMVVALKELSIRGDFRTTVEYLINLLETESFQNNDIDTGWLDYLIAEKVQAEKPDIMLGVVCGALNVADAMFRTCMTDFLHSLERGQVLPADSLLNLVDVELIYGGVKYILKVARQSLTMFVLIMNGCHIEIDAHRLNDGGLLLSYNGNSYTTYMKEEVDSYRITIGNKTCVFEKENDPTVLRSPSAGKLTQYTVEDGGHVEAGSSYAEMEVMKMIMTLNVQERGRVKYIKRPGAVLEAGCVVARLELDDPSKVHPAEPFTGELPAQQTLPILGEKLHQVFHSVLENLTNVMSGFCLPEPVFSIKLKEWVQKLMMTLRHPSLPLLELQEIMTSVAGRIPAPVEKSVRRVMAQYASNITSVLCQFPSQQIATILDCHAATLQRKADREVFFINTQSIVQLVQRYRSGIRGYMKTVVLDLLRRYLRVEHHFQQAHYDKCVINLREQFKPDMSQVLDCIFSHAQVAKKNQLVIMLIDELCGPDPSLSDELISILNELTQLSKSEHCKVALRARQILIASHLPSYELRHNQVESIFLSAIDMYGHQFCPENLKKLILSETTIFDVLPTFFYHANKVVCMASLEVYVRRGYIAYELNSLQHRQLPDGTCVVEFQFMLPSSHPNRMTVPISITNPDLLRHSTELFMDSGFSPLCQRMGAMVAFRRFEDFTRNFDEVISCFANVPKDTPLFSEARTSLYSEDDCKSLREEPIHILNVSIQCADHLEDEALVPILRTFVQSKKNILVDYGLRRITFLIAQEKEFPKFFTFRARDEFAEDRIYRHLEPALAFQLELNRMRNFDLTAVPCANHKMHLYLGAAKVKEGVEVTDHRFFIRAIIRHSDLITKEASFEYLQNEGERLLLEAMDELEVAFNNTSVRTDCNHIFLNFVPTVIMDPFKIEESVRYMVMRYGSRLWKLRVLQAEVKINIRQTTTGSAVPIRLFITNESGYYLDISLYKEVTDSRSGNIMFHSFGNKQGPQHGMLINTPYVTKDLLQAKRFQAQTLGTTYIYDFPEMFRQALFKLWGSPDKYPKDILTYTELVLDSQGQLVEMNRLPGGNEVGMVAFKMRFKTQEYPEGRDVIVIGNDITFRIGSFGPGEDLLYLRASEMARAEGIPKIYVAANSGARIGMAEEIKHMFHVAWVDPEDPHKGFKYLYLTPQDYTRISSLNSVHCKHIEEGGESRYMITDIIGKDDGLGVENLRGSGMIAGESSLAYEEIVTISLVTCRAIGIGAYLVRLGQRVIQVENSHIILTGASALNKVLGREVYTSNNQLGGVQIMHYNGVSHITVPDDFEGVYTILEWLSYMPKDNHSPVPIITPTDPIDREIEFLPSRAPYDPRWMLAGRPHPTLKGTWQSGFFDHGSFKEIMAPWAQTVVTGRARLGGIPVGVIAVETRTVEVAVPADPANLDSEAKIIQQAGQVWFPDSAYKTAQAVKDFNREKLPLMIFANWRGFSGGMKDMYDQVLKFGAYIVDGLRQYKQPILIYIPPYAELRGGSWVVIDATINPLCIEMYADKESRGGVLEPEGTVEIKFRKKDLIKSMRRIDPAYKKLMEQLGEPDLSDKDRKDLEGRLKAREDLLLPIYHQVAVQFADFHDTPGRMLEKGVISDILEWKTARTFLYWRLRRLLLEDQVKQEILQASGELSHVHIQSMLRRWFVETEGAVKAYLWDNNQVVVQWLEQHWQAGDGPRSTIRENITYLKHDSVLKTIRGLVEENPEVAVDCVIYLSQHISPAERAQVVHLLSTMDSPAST
SMILES,IC50 (human (hACC2); Table 2a) [nM],"IC50 (human (hACC2); Table 2b, additional results) [nM]",MIC (C. albicans; [3]) [µg/mL],MIC (C. albicans; [4]) [µg/mL],MIC (C. parapsilosis; [5]) [µg/mL],MIC (C. parapsilosis; [6]) [µg/mL],IC90 (Botrtyis cinerea (Bc); [7]) [µg/mL],IC90 (Botrtyis cinerea (Bc); [8]) [µg/mL],IC90 (Diplodia maydis (Dm); [9]) [µg/mL],IC90 (Diplodia maydis (Dm); [10]) [µg/mL],"IC90 [1, 11] [µg/mL]","IC90 [1, 12] [µg/mL]","IC90 [2, 13] [µg/mL]","IC90 [2, 14] [µg/mL]",IC90 (Rhizoctonia solani (Rs); [15]) [µg/mL],IC90 (Rhizoctonia solani (Rs); [16]) [µg/mL],IC90 (Septoria tritici (St); [17]) [µg/mL],IC90 (Septoria tritici (St); [18]) [µg/mL],IC50 (fungal (fACC2); Table 2a) [nM],"IC50 (fungal (fACC2); Table 2b, additional results) [nM]",further results
"COc1ccc(F)cc1[C@H](Cn1c(=O)n(C(C)(C)C(=O)N2CCCC2)c(=O)c2c(C)c(-n3nccn3)sc21)OCCN(C)C [Compound I-75, (R)-1-(2-(2-(dimethylamino)ethoxy)-2-(5-fluoro-2-methoxyphenyl)ethyl)-5-methyl-3-(2-methyl-1-oxo-1-(pyrrolidin-1-yl)propan-2-yl)-6-(2H-1,2,3-triazol-2-yl)thieno[2,3-d]pyrimidine-2,4(1H,3H)-dione]",> 40,> 40,2.1 to 4,2.01 to 4,2.1 to 4,1.01 to 2,> 50,> 50,> 50,> 50,> 50,> 50,> 50,> 50,> 50,> 50,> 50,> 50,1 to 5,1 to 5,
"COc1ccc(F)cc1[C@H](Cn1c(=O)n(C(C)(C)C(=O)NC(C)C)c(=O)c2c(C)c(-n3nccn3)sc21)OCCN(C)C [Compound I-76, (R)-2-(1-(2-(2-(dimethylamino)ethoxy)-2-(5-fluoro-2-methoxyphenyl)ethyl)-5-methyl-2,4-dioxo-6-(2H-1,2,3-triazol-2-yl)-1,4-dihydro-thieno[2,3-d]pyrimidin-3(2H)-yl)-N-isopropyl-2-methylpropanamide]",> 40,> 40,,,,,,,,,,,,,,,,,1 to 5,1 to 5,"MIC (C. albicans; read-out: MIC, C. albicans ATCC 90028, Table 3a, 3 replicates, MIC recorded at 48 h): 2.1 to 4 µg/mL; MIC (C. albicans; read-out: MIC, C. albicans ATCC 90028, Table 3b (additional results), 3 replicates, MIC recorded at 48 h): 1.01 to 2 µg/mL; MIC (C. parapsilosis; read-out: MIC, C. parapsilosis ATCC 22019, Table 3a, 3 replicates, MIC recorded at 48 h): 2.1 to 4 µg/mL; MIC (C. parapsilosis; read-out: MIC, C. parapsilosis ATCC 22019, Table 3b (additional results), 3 replicates, MIC recorded at 48 h): 0.25 to 1 µg/mL; IC90 (Botrtyis cinerea (Bc); read-out: Concentration at 90% Inhibition Bc, Botrtyis cinerea, growth inhibition at 48 hours vs 2% DMSO control): > 50 µg/mL; IC90 (Botrtyis cinerea (Bc); read-out: Concentration at 90% Inhibition Bc, Botrtyis cinerea, growth inhibition vs 2% DMSO control at 48 hours): > 50 µg/mL; IC90 (Diplodia maydis (Dm); read-out: Concentration at 90% Inhibition Dm, Diplodia maydis, growth inhibition at 48 hours vs 2% DMSO control): > 50 µg/mL; IC90 (Diplodia maydis (Dm); read-out: Concentration at 90% Inhibition Dm, Diplodia maydis, growth inhibition vs 2% DMSO control at 48 hours): > 50 µg/mL; Concentration at 90% Inhibition Fm [1, 11]: D (compound concentration of >50 ppm at 90% inhibition of fungal pathogens); IC90 [1]: > 50 µg/mL; IC90 ([2]; read-out: Concentration at 90% Inhibition Fv, Fusarium virguliforme, growth inhibition at 48 hours vs 2% DMSO control): > 50 µg/mL; IC90 ([2]; read-out: Concentration at 90% Inhibition Fv, Fusarium virguliforme, growth inhibition vs 2% DMSO control at 48 hours): > 50 µg/mL; IC90 (Rhizoctonia solani (Rs); read-out: Concentration at 90% Inhibition Rs, Rhizoctonia solani, mycelial plugs, growth inhibition at 48 hours vs 2% DMSO control): 10 µg/mL; IC90 (Rhizoctonia solani (Rs); read-out: Concentration at 90% Inhibition Rs, Rhizoctonia solani, mycelial plugs, growth inhibition vs 2% DMSO control at 48 hours): > 50 µg/mL; IC90 (Septoria tritici (St); read-out: Concentration at 90% Inhibition St, Septoria tritici, growth inhibition at 48 hours vs 2% DMSO control): > 50 µg/mL; IC90 (Septoria tritici (St); read-out: Concentration at 90% Inhibition St, Septoria tritici, growth inhibition vs 2% DMSO control at 48 hours): > 50 µg/mL"
"COc1ccc(F)cc1[C@H](Cn1c(=O)n([C@@H](C)C(=O)NC2CCC2)c(=O)c2c(C)c(-n3nccn3)sc21)OCCO [Compound I-77, (S)—N-cyclobutyl-2-(1-((R)-2-(5-fluoro-2-methoxyphenyl)-2-(2-hydroxyethoxy)ethyl)-5-methyl-2,4-dioxo-6-(2H-1,2,3-triazol-2-yl)-1,4-dihydrothieno[2,3-d]pyrimidin-3(2H)-yl)propanamide]",10 to 40,10 to 40,1.1 to 2,2.01 to 4,1.1 to 2,0.25 to 1,0.4,0.4,2,2,0.08,0.08,0.4,0.4,2,2,> 50,> 50,1 to 5,1 to 5,
"COc1ccc(F)cc1[C@H](Cn1c(=O)n([C@@H](C)C(=O)N(C)C(C)C)c(=O)c2c(C)c(-n3nccn3)sc21)OCCO [Compound I-78, (S)-2-(1-((R)-2-(5-fluoro-2-methoxyphenyl)-2-(2-hydroxy-ethoxy)ethyl)-5-methyl-2,4-dioxo-6-(2H-1,2,3-triazol-2-yl)-1,4-dihydrothieno[2,3-d]pyrimidin-3(2H)-yl)-N-isopropyl-N-methylpropanamide]",10 to 40,10 to 40,2.1 to 4,1.01 to 2,2.1 to 4,2.01 to 4,0.4,0.4,2,2,0.08,0.08,0.4,0.4,0.08,0.08,10,> 50,1 to 5,0.3 to 1,
"COCCO[C@@H](Cn1c(=O)n(CC(=O)N2CCCC2)c(=O)c2c(C)c(-n3nccn3)sc21)c1cc(F)ccc1OC [Compound I-79, (R)-1-(2-(5-fluoro-2-methoxyphenyl)-2-(2-methoxy-ethoxy)ethyl)-5-methyl-3-(2-oxo-2-(pyrrolidin-1-yl)ethyl)-6-(2H-1,2,3-tria-zol-2-yl)thieno[2,3-d]pyrimidine-2,4(1H,3H)-dione]",10 to 40,10 to 40,2.1 to 4,> 4.01,2.1 to 4,2.01 to 4,2,2,2,2,0.4,0.4,2,10,10,> 50,> 50,> 50,1 to 5,1 to 5,
